Data published in patent publication US10149818B2 (UCB PHARMA GMBH, priority 2010, dated 2018).
Converted amounts (≈) assume the structure as drawn.

Experiments:
[1] = system: subjects with partial-onset seizures; test: PK-PD modeling of seizure frequency, Emax model, pooled clinical trials (Example 54); format: in vivo, human
Description: Objectives of the PK-PD analysis were to evaluate and describe the correlation between the LCM plasma concentration over time (PK parameter) and the reduction of daily seizures over time (PD parameter) based on the pooled data from the previous clinical human trials.
The evaluation of PK-PD modeling was done based on the Emax model.
The following Table 8 summarizes the PK-PD modeling results using the Emax model.
The slope of the linear regression is equal to the mean daily number of seizures.
Based on the relative difference of the individual slopes during Titration and Maintenance Phase vs Baseline slope and the approximated AUCT,ss,m, the PK-PD evaluation was performed using a linear model, the Emax model, and the Emax 100 model. […] Finally, the Emax model had the lowest weighted sum of squares and was therefore selected as the most appropriate PK-PD model to describe the data. […] The AUC50 is defined as the AUC[…],ss that is needed in individuals to achieve 50% of the maximum effect (decrease in seizure frequency).

[2] = IR tablets twice daily; average distribution volume of 50 liters; cited from earlier work

## COC[C@@H](NC(C)=O)C(=O)NCc1ccccc1 [lacosamide, (R)-2-Acetamido-N-benzyl-3-methoxypropionamide]
[1]; 50% of the maximum effect
  decrease in partial seizure frequency at AUC50: 35%
[1]; AUC of 67 μg/mL*h (mean dose 200 mg LCM bid in a typical subject)
  decrease of seizures as % of the maximum effect: 65%
[1]; Emax model
  AUC,tau,ss corresponding to kd: 35 µg·h/mL
[1]; Homo sapiens, Emax model, plasma concentration, read-out: kd, concentration for half of the maximum effect
  EC50: 2.92 µg/mL (≈ 11.7 µM)
[1]; human, in vivo
  decrease of seizures as % of the maximum effect: 74%
[2]
  maximum dosage-normalized lacosamide steady state plasma levels (Cmax, ss, norm): 40 to 43 ng/mL/mg
